The values that follow are results of earlier work, collected in patent US7087219B2, “Toothpaste containing anticancer agents” (priority 2003, dated 2006).

For data set [1] the following is noted: according to publications and patents (Burzynski et al. 1986).
The conditions of data set [2]: general statement; marketed as a food supplement.

On to `O=C1CCC(NC(=O)Cc2ccccc2)C(=O)N1` (centres unmarked) [3-N-phenylacetylamino-2,6-piperidinedione], for which, in data set [1], the “efficacy in treating cancers in clinical trials” value is on record as “effective in treating a variety of cancers in clinical trials”. For the same molecule, the toxicity entry in data set [2] is reported as “completely non-toxic”.
